Key:
BCL-2 = BCL-2 (Homo sapiens (Human), UniProt P10415); test: Protein-protein interaction assay BCL-2/Bad BH3 peptide (BCL-2 assay, TR-FRET); type: binding; conditions: His-BCL-2 / Bad BH3 peptide, median
Procedure, shortened: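 His-BCL-2 (1-211, E. coli) at 1 nM preincubated 10 min at 22 °C with compound (11 concentrations, 0.1 nM-20 μM, duplicates), then 1 nM biotinylated Bad BH3 peptide added. After 1 h at 22 °C plus overnight at 4 °C, TR-FRET 665/620 ratio normalised to DMSO and no-BCL-2 controls, IC50 from 4-parameter fit.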

MV-4-11 = test: Antiproliferation assay (Assay 7), MV-4-11; type: cell-based; conditions: CellTiter-Glo, 72 hours, several values per example, listed as 08, read-out: Antiproli MV-4-11 [M] IC50
Procedure, shortened: (§1)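 Proliferation was read by CellTiter-Glo luminescence after 72 hours of compound treatment at 37° C. The read was referenced to a parallel plate measured at time zero.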

HMC-1-8 = test: Antiproliferation assay (Assay 7), HMC-1-8; type: cell-based; conditions: 72 h, CellTiter-Glo, several values per example, read-out: Antiproli HMC-1-8 [M] IC50
Procedure, shortened: as §1

SUDHL10 = test: Induction of cytotoxicity (Assay 6), SUDHL10; conditions: read-out: Cytotox SUDHL10 [M] (median) IC50, CellTiter-Glo, 5 hours, SUDHL10

Sequence of BCL-2 (P10415 other isoform, or with tags, fused parts or gaps): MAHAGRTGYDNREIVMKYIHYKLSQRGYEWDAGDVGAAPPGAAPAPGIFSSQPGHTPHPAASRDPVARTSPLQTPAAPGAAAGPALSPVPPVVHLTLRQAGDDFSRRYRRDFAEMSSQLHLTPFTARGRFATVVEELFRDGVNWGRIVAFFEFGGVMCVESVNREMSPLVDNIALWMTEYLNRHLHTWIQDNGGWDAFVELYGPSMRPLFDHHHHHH

How did the IC50 (BCL-2) turn out when `CCc1c2c(nn1C)CN(C)S(=O)(=O)CCCn1c(C(=O)O)c(CCCOc3cccc4cc(F)ccc34)c3ccc(F)c-2c31` (single isomer, unassigned; enantiomer 1) [Example 8, (+)-3-Ethyl-4-fluoro-7-{3-[(6-fluoronaphthalen-1-yl)oxy]propyl}-2,14-dimethyl-13,13-dioxo-10,11,12,13,14,15-hexahydro-2H-13λ^6-pyrazolo[3′,4′:4,5][1,2,8]thiadiazacycloundecino-[6,7,8-hi]indole-8-carboxylic acid (Enantiomer 1)] was run?
Its IC50 is > 20 µM.

What about the IC50 (MV-4-11) of the same compound?
The IC50 was 1.18e-06 M.

What about the IC50 (HMC-1-8) of the same compound?
The IC50 was 2.2e-06 M.

What about the IC50 (SUDHL10) of the same compound?
Its IC50 is 1.1e-06 M.

— patent US11401278B2, “Macrocyclic indole derivatives” (The Broad Institute, Inc., priority 2017, dated 2022)
